Patent US20240409585A1, “MACROCYCLIC IMMUNOMODULATORS” (priority 2021, published 2024)
Numbered stars: 1 amine (or outer) side, 2 acyl side, 3 side chain; on linkers, the order of the positions; unused ones are H or OH. Bridge positions count the residues as written; N and C are the ends. Square brackets hold non-standard residues; d marks the D form. Peptide text beside a SMILES is read from it. * marks the point of attachment. ξ: configuration not given here. X39 = COc1cccc(-c2ccc(C[C@H](N[*:1])C(=O)[*:2])cc2)c1; Phe(4-COOH) = N[C@@H](Cc1ccc(C(=O)O)cc1)C(=O)O; Bip = N[C@@H](Cc1ccc(-c2ccccc2)cc1)C(=O)O; Phe(3-Me) = Cc1cccc(C[C@H](N)C(=O)O)c1; NMeY = CN[C@@H](Cc1ccc(O)cc1)C(=O)O; dBta = N[C@H](Cc1csc2ccccc12)C(=O)O; Val(3-OH) = CC(C)(O)[C@H](N)C(=O)O; 4Pal = N[C@@H](Cc1ccncc1)C(=O)O; Cha = N[C@@H](CC1CCCCC1)C(=O)O; Cit = NC(=O)NCCC[C@H](N)C(=O)O; Ile(3ξ) = CCC(C)[C@H](N)C(=O)O; Thr(3ξ) = CC(O)[C@H](N)C(=O)O; Carboxymethyl = O=C(O)C*; NMeA = CN[C@@H](C)C(=O)O; Nle = CCCC[C@H](N)C(=O)O; Orn = NCCC[C@H](N)C(=O)O; Dab = NCC[C@H](N)C(=O)O; ξC = NC(CS)C(=O)O

biological target: T1, PE-labeled human PD-L1-Ig binding to Jurkat cell line over-expressing human PD-1 (Jurkat-PD-1) (Homo sapiens, UniProt Q15116); test: Jurkat-PD-1 Cell Binding High-Content Screening Assay (CBA): Method 1; conditions: Jurkat-hPD-1 cells, PE-labeled PD-L1-Ig 20 nM final; read-out: Jurkat HPDL1 PD1 IC50 (uM) (Method 1)
T1 construct: expressed in transfected cells; host or cells: Jurkat
T1 sequence (Q15116 25-288): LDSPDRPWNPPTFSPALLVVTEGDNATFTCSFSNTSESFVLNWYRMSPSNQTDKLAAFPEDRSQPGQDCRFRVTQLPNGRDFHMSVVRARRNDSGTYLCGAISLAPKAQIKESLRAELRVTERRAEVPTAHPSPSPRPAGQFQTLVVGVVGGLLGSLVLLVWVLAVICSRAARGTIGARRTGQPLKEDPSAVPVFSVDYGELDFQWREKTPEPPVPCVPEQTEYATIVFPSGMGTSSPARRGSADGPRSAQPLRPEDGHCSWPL

IC50 | Structure (SMILES)
0.11 µM | Cc1cccc(C[C@@H]2NC(=O)[C@H](CC(=O)O)NC(=O)[C@H](Cc3ccc(OCC(=O)O)cc3)NC(=O)[C@H](Cc3ccncc3)NC(=O)CSC[C@@H](C(=O)N[C@@H](CCN)C(N)=O)NC(=O)[C@H](CO)NC(=O)[C@H](C(C)(C)O)NC(=O)[C@H](CC3CCCCC3)NC(=O)[C@H](CCN)NC(=O)[C@@H](CC(C)C)NC(=O)[C@H](Cc3ccc(O)cc3)N(C)C(=O)[C@H](Cc3ccc(OCC(=O)O)cc3)NC(=O)[C@H](Cc3ccc(-c4ccccc4)cc3)NC(=O)[C@H](Cc3ccc(OCC(=O)O)cc3)NC2=O)c1 [Compound 1835] ({CH2CO}-[4Pal]Y(Carboxymethyl)D[Phe(3-Me)]Y(Carboxymethyl)[Bip]Y(Carboxymethyl)[NMeY][dL][Dab][Cha][Val(3-OH)]SC[Dab]-NH2; thioether N-14)
0.01 µM | CC(=O)NCCCC[C@@H]1NC(=O)[C@H](C(C)C)NC(=O)[C@H](CC2CCCCC2)NC(=O)[C@H](CCN)NC(=O)[C@@H](CC(C)C)NC(=O)[C@H](C)N(C)C(=O)[C@H](CC(N)=O)NC(=O)[C@H](Cc2ccc(-c3ccccc3)cc2)NC(=O)[C@H](C(C)C)NC(=O)[C@H](Cc2cccc(C)c2)NC(=O)[C@H](CC(=O)O)NC(=O)[C@H](Cc2ccc(OCC(=O)O)cc2)NC(=O)[C@H](Cc2ccc(OCC(=O)O)cc2)NC(=O)CSC[C@@H](C(N)=O)NC1=O [Compound 2263] ({CH2CO}-Y(Carboxymethyl)Y(Carboxymethyl)D[Phe(3-Me)]V[Bip]N[NMeA][dL][Dab][Cha]VK(Ac)C-NH2; thioether N-14)
0.17 µM | COc1cccc(-c2ccc(C[C@@H]3NC(=O)[C@H](CC(C)C)NC(=O)[C@H](Cc4c[nH]c5ccccc45)NC(=O)[C@H](CC(=O)O)NC(=O)[C@H](Cc4ccc(O)cc4)NC(=O)[C@H](Cc4ccccc4)NC(=O)CSC[C@@H](C(=O)N[C@@H](C)C(N)=O)NC(=O)[C@H](CO)NC(=O)[C@H](C(C)C)NC(=O)[C@H](CC(C)C)NC(=O)[C@H](CC(N)=O)NC(=O)[C@@H](C)NC(=O)[C@H](C)N(C)C(=O)[C@H](C(C)C)NC3=O)cc2)c1 [Compound 1798] ({CH2CO}-FYDWL[X39]V[NMeA][dA]NLVSCA-NH2; thioether N-14)
0.01 µM | Cc1cccc(C[C@@H]2NC(=O)[C@H](CC(=O)O)NC(=O)[C@H](Cc3ccncc3)NC(=O)[C@H](Cc3ccc(OCC(=O)O)cc3)NC(=O)CSC[C@@H](C(N)=O)NC(=O)[C@H](CO)NC(=O)[C@H](C(C)C)NC(=O)[C@H](CC(C)C)NC(=O)[C@H](CC(N)=O)NC(=O)[C@@H](CC(C)C)NC(=O)[C@H](C)N(C)C(=O)[C@H](C(C)C)NC(=O)[C@H](Cc3ccc(-c4ccccc4)cc3)NC(=O)[C@H](CC(C)C)NC2=O)c1 [Compound 1595] ({CH2CO}-Y(Carboxymethyl)[4Pal]D[Phe(3-Me)]L[Bip]V[NMeA][dL]NLVSC-NH2; thioether N-14)
0.51 µM | CC(C)C[C@@H]1NC(=O)[C@H](CCCNC(=N)N)NC(=O)[C@@H](Cc2csc3ccccc23)NC(=O)[C@H](C)N(C)C(=O)[C@H](CCCNC(=N)N)NC(=O)[C@H](Cc2ccc(-c3ccccc3)cc2)NC(=O)[C@H](C(C)C)NC(=O)[C@H](Cc2c[nH]c3ccccc23)NC(=O)[C@H](CC(=O)O)NC(=O)[C@H](Cc2ccc(O)cc2)NC(=O)[C@H](Cc2ccccc2)NC(=O)CSC[C@@H](C(=O)N[C@@H](C)C(N)=O)NC(=O)[C@H]([C@@H](C)O)NC(=O)[C@H](C(C)C)NC1=O [Compound 1180] ({CH2CO}-FYDWV[Bip]R[NMeA][dBta]RLVTCA-NH2; thioether N-14)
0.03 µM | CC(C)C[C@@H]1NC(=O)[C@H](Cc2c[nH]c3ccccc23)NC(=O)[C@H](CC(=O)O)NC(=O)[C@H](Cc2ccc(O)cc2)NC(=O)[C@H](Cc2ccccc2)NC(=O)CSC[C@@H](C(=O)N[C@@H](C)C(N)=O)NC(=O)[C@H](CO)NC(=O)[C@H](C(C)C)NC(=O)[C@H](CC(C)C)NC(=O)[C@H](CCN)NC(=O)[C@@H](C)NC(=O)[C@H](C)N(C)C(=O)[C@H](CCCNC(=N)N)NC(=O)[C@H](Cc2ccc(-c3ccccc3)cc2)NC1=O [Compound 1751] ({CH2CO}-FYDWL[Bip]R[NMeA][dA][Dab]LVSCA-NH2; thioether N-14)
0.01 µM | Cc1cccc(C[C@@H]2NC(=O)[C@H](CC(=O)O)NC(=O)[C@H](Cc3ccc(C(=O)O)cc3)NC(=O)[C@H](Cc3ccc(OCC(=O)O)cc3)NC(=O)CSC[C@@H](C(=O)N[C@@H](CCC(=O)O)C(N)=O)NC(=O)[C@H](CO)NC(=O)[C@H](C(C)C)NC(=O)[C@H](CC(C)C)NC(=O)[C@H](CC(N)=O)NC(=O)[C@@H](CC(C)C)NC(=O)[C@H](C)N(C)C(=O)[C@H](C(C)C)NC(=O)[C@H](Cc3ccc(-c4ccccc4)cc3)NC(=O)[C@H](CC(C)C)NC2=O)c1 [Compound 1604] ({CH2CO}-Y(Carboxymethyl)[Phe(4-COOH)]D[Phe(3-Me)]L[Bip]V[NMeA][dL]NLVSCE-NH2; thioether N-14)
0.08 µM | CC(C)C[C@@H]1NC(=O)[C@H](Cc2c[nH]c3ccccc23)NC(=O)[C@H](CC(=O)O)NC(=O)[C@H](Cc2ccc(O)cc2)NC(=O)[C@H](CC(N)=O)NC(=O)CSC[C@@H](C(=O)N[C@@H](C)C(N)=O)NC(=O)[C@H]([C@@H](C)O)NC(=O)[C@H](C(C)C)NC(=O)[C@H](CC(C)C)NC(=O)[C@H](CCCNC(=N)N)NC(=O)[C@@H](CC(C)C)NC(=O)[C@H](C)N(C)C(=O)[C@H](CCCNC(=N)N)NC(=O)[C@H](Cc2ccc(-c3ccccc3)cc2)NC1=O [Compound 1215] ({CH2CO}-NYDWL[Bip]R[NMeA][dL]RLVTCA-NH2; thioether N-14)
0.01 µM | CC(C)C[C@@H]1NC(=O)[C@H](Cc2c[nH]c3ccccc23)NC(=O)[C@H](CC(=O)O)NC(=O)[C@H](Cc2ccc(C(=O)O)cc2)NC(=O)[C@H](Cc2ccc(OCC(=O)O)cc2)NC(=O)CSC[C@@H](C(=O)N[C@@H](CO)C(N)=O)NC(=O)[C@H](CO)NC(=O)[C@H](C(C)C)NC(=O)[C@H](CC2CCCCC2)NC(=O)[C@H](CCN)NC(=O)[C@@H](CC(C)C)NC(=O)[C@H](C)N(C)C(=O)[C@H](C(C)C)NC(=O)[C@H](Cc2ccc(-c3ccccc3)cc2)NC1=O [Compound 1913] ({CH2CO}-Y(Carboxymethyl)[Phe(4-COOH)]DWL[Bip]V[NMeA][dL][Dab][Cha]VSCS-NH2; thioether N-14)
0.01 µM | CC[C@H](C)[C@@H]1NC(=O)[C@H](Cc2ccc(-c3ccccc3)cc2)NC(=O)[C@H](CC(C)C)NC(=O)[C@H](Cc2c[nH]c3ccccc23)NC(=O)[C@H](CC(=O)O)NC(=O)[C@H](Cc2ccc(C(=O)O)cc2)NC(=O)[C@H](Cc2ccc(OCC(=O)O)cc2)NC(=O)CSC[C@@H](C(N)=O)NC(=O)[C@H](CO)NC(=O)[C@H](C(C)C)NC(=O)[C@H](CC2CCCCC2)NC(=O)[C@H](CCN)NC(=O)[C@@H](CC(C)C)NC(=O)[C@H](C)N(C)C1=O [Compound 1635] ({CH2CO}-Y(Carboxymethyl)[Phe(4-COOH)]DWL[Bip]I[NMeA][dL][Dab][Cha]VSC-NH2; thioether N-14)
0.01 µM | CC(C)C[C@@H]1NC(=O)[C@H](Cc2c[nH]c3ccccc23)NC(=O)[C@H](CC(=O)O)NC(=O)[C@H](Cc2ccc(C(=O)O)cc2)NC(=O)[C@H](Cc2ccc(OCC(=O)O)cc2)NC(=O)CSC[C@@H](C(N)=O)NC(=O)[C@H](CO)NC(=O)[C@H](C(C)C)NC(=O)[C@H](CC2CCCCC2)NC(=O)[C@H](CCN)NC(=O)[C@@H](CC(C)C)NC(=O)[C@H](C)N(C)C(=O)[C@H](CCCNC(N)=O)NC(=O)[C@H](Cc2ccc(-c3ccccc3)cc2)NC1=O [Compound 1636] ({CH2CO}-Y(Carboxymethyl)[Phe(4-COOH)]DWL[Bip][Cit][NMeA][dL][Dab][Cha]VSC-NH2; thioether N-14)
0.01 µM | CCNC(=O)[C@H](CCN)NC(=O)[C@@H]1CSCC(=O)N[C@@H](Cc2ccncc2)C(=O)N[C@@H](Cc2ccc(C(=O)O)cc2)C(=O)N[C@@H](CC(=O)O)C(=O)N[C@@H](Cc2c[nH]c3ccccc23)C(=O)N[C@@H](CC(C)C)C(=O)N[C@@H](Cc2ccc(-c3ccccc3)cc2)C(=O)N[C@@H]([C@@H](C)CC)C(=O)N(C)[C@@H](C)C(=O)N[C@H](CC(C)C)C(=O)N[C@@H](CCN)C(=O)N[C@@H](CC2CCCCC2)C(=O)N[C@@H](C(C)(C)O)C(=O)N[C@@H](CO)C(=O)N1 [Compound 1849] ({CH2CO}-[4Pal][Phe(4-COOH)]DWL[Bip]I[NMeA][dL][Dab][Cha][Val(3-OH)]SC[Dab]-NHEt; thioether N-14)
0.02 µM | CCC(C)[C@@H]1NC(=O)[C@H](Cc2ccc(-c3ccccc3)cc2)NC(=O)[C@H](C(C)C)NC(=O)[C@H](Cc2c[nH]c3ccccc23)NC(=O)[C@H](CC(=O)O)NC(=O)[C@H](Cc2ccc(O)cc2)NC(=O)[C@H](Cc2ccncc2)NC(=O)CSCC(C(=O)N[C@@H](CCN)C(=O)O)NC(=O)[C@H](C(C)O)NC(=O)[C@H](C(C)C)NC(=O)[C@H](CC2CCCCC2)NC(=O)[C@H](CC(N)=O)NC(=O)[C@@H](CC(C)C)NC(=O)[C@H](C)N(C)C1=O (stereo partly drawn) [Compound 2213] ({CH2CO}-[4Pal]YDWV[Bip][Ile(3ξ)][NMeA][dL]N[Cha]V[Thr(3ξ)][ξC][Dab]-OH; thioether N-14)
0.09 µM | CCCC[C@@H]1NC(=O)[C@H](CCCNC(=N)N)NC(=O)[C@@H](CC(C)C)NC(=O)[C@H](C)N(C)C(=O)[C@H](CCCN)NC(=O)[C@H](Cc2ccc(-c3ccccc3)cc2)NC(=O)[C@H](C(C)C)NC(=O)[C@H](Cc2c[nH]c3ccccc23)NC(=O)[C@H](CC(=O)O)NC(=O)[C@H](Cc2ccc(O)cc2)NC(=O)[C@H](CC(N)=O)NC(=O)CSC[C@@H](C(=O)N[C@@H](C)C(N)=O)NC(=O)[C@H]([C@@H](C)O)NC(=O)[C@H](C(C)C)NC1=O [Compound 1289] ({CH2CO}-NYDWV[Bip][Orn][NMeA][dL]R[Nle]VTCA-NH2; thioether N-14)
0.04 µM | CC(C)C[C@@H]1NC(=O)[C@H](Cc2c[nH]c3ccccc23)NC(=O)[C@H](CC(=O)O)NC(=O)[C@H](Cc2ccncc2)NC(=O)[C@H](Cc2ccc(OCC(=O)O)cc2)NC(=O)CSC[C@@H](C(=O)N[C@H](CC(N)=O)C(N)=O)NC(=O)[C@H]([C@@H](C)O)NC(=O)[C@H](C(C)C)NC(=O)[C@H](CC2CCCCC2)NC(=O)[C@H](CCN)NC(=O)[C@@H](CC(C)C)NC(=O)[C@H](C)N(C)C(=O)[C@H](C(C)C)NC(=O)[C@H](Cc2ccc(-c3ccccc3)cc2)NC1=O [Compound 1903] ({CH2CO}-Y(Carboxymethyl)[4Pal]DWL[Bip]V[NMeA][dL][Dab][Cha]VTC[dN]-NH2; thioether N-14)
